Values quoted from earlier work, collected in US6187938A, “ω-amino acid derivatives, processes of their preparation and their use” (Bochemie, s.r.o., priority 1997, dated 2001).

System: skin
Conditions: in presence of petrolatum; Stoughton, McClure 1983

CCCCCCCCCCCCN1CCCCCC1=O [laurocapram, 1-dodecylazacycloheptan-2-one]
inhibition of permeation enhancing effect by paraffinic auxiliary substances (e.g., petrolatum): completely inhibit
